PubChem BioAssay (NCI)
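Step 1: Grow cells in 96-well plates. Step 2: Expose to compound for 48 hours at 5 concentrations. Step 3: Interpolate endpoints linearly; if unreached, use highest concentration. GI50 = concentration required for 50% inhibition of growth. TGI: total growth inhibition.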

Assays:
Test in all cases: NCI-60 cell line screen, 48 h
786-0 renal = system: 786-0 renal
A498 renal = system: A498 renal
A549 NSCLC = system: A549 NSCLC
ACHN renal = system: ACHN renal
BT-549 breast = system: BT-549 breast
CAKI-1 renal = system: CAKI-1 renal
COLO 205 colon = system: COLO 205 colon
DU-145 prostate = system: DU-145 prostate
EKVX NSCLC = system: EKVX NSCLC
HCC-2998 colon = system: HCC-2998 colon
HCT-116 colon = system: HCT-116 colon
HCT-15 colon = system: HCT-15 colon
HL-60(TB) leukemia = system: HL-60(TB) leukemia
HOP-62 NSCLC = system: HOP-62 NSCLC
HOP-92 NSCLC = system: HOP-92 NSCLC
HS 578T breast = system: HS 578T breast
HT29 colon = system: HT29 colon
IGROV1 ovarian = system: IGROV1 ovarian
K-562 leukemia = system: K-562 leukemia
LOX IMVI melanoma = system: LOX IMVI melanoma
M14 melanoma = system: M14 melanoma
MALME-3M melanoma = system: MALME-3M melanoma
MCF7 breast = system: MCF7 breast
MDA-MB-231 breast = system: MDA-MB-231 breast
MDA-MB-435 = system: MDA-MB-435
NCI-H226 lung = system: NCI-H226 lung
NCI-H23 lung = system: NCI-H23 lung
NCI-H460 lung = system: NCI-H460 lung
NCI-H522 lung = system: NCI-H522 lung
NCI/ADR-RES ovarian = system: NCI/ADR-RES ovarian
OVCAR-3 ovarian = system: OVCAR-3 ovarian
OVCAR-4 ovarian = system: OVCAR-4 ovarian
OVCAR-5 ovarian = system: OVCAR-5 ovarian
OVCAR-8 ovarian = system: OVCAR-8 ovarian
PC-3 prostate = system: PC-3 prostate
RPMI-8226 leukemia = system: RPMI-8226 leukemia
RXF 393 renal = system: RXF 393 renal
SF-268 CNS = system: SF-268 CNS
SF-295 CNS = system: SF-295 CNS
SF-539 CNS = system: SF-539 CNS
SK-MEL-2 melanoma = system: SK-MEL-2 melanoma
SK-MEL-28 melanoma = system: SK-MEL-28 melanoma
SK-MEL-5 melanoma = system: SK-MEL-5 melanoma
SK-OV-3 ovarian = system: SK-OV-3 ovarian
SN12C renal = system: SN12C renal
SNB-19 CNS = system: SNB-19 CNS
SNB-75 CNS = system: SNB-75 CNS
SW-620 colon = system: SW-620 colon
T-47D breast = system: T-47D breast
TK-10 renal = system: TK-10 renal
U251 CNS = system: U251 CNS
UACC-257 melanoma = system: UACC-257 melanoma
UACC-62 melanoma = system: UACC-62 melanoma
UO-31 renal = system: UO-31 renal
CCRF-CEM leukemia = system: CCRF-CEM leukemia
KM12 colon = system: KM12 colon
SR leukemia = system: SR leukemia

Fc1ccc2c(c1)SC1=Nc3sc4cc(F)ccc4[n+]3CN12
TGI (786-0 renal): 47.4 µM | TGI (A498 renal): 33.5 µM | TGI (A549 NSCLC): 58.3 µM | TGI (ACHN renal): 62.2 µM | TGI (BT-549 breast): 43.6 µM | TGI (CAKI-1 renal): 39.3 µM | TGI (COLO 205 colon): > 100 µM | TGI (DU-145 prostate): > 100 µM | TGI (EKVX NSCLC): 79 µM | TGI (HCC-2998 colon): 47.5 µM | TGI (HCT-116 colon): > 100 µM | TGI (HCT-15 colon): > 100 µM | TGI (HL-60(TB) leukemia): 0.184 µM | TGI (HOP-62 NSCLC): 56.1 µM | TGI (HOP-92 NSCLC): 51.6 µM | TGI (HS 578T breast): 38.4 µM | TGI (HT29 colon): > 100 µM | TGI (IGROV1 ovarian): 30.6 µM | TGI (K-562 leukemia): 43.9 µM | TGI (LOX IMVI melanoma): 52.5 µM | TGI (M14 melanoma): > 100 µM | TGI (MALME-3M melanoma): 47.1 µM | TGI (MCF7 breast): > 100 µM | TGI (MDA-MB-231 breast): 44.3 µM | TGI (MDA-MB-435): > 100 µM | TGI (NCI-H226 lung): 56.8 µM | TGI (NCI-H23 lung): 47.3 µM | TGI (NCI-H460 lung): > 100 µM | TGI (NCI-H522 lung): 35.2 µM | TGI (NCI/ADR-RES ovarian): 63.6 µM | TGI (OVCAR-3 ovarian): 36 µM | TGI (OVCAR-4 ovarian): 72.4 µM | TGI (OVCAR-5 ovarian): > 100 µM | TGI (OVCAR-8 ovarian): 38 µM | TGI (PC-3 prostate): > 100 µM | TGI (RPMI-8226 leukemia): 8.45 µM | TGI (RXF 393 renal): 86.8 µM | TGI (SF-268 CNS): > 100 µM | TGI (SF-295 CNS): 74 µM | TGI (SF-539 CNS): 28.3 µM | TGI (SK-MEL-2 melanoma): 55 µM | TGI (SK-MEL-28 melanoma): > 100 µM | TGI (SK-MEL-5 melanoma): 28.2 µM | TGI (SK-OV-3 ovarian): > 100 µM | TGI (SN12C renal): 51.2 µM | TGI (SNB-19 CNS): 38.4 µM | TGI (SNB-75 CNS): 36.8 µM | TGI (SW-620 colon): > 100 µM | TGI (T-47D breast): 55.4 µM | TGI (TK-10 renal): 42.7 µM | TGI (U251 CNS): 46.3 µM | TGI (UACC-257 melanoma): 92.1 µM | TGI (UACC-62 melanoma): 33.1 µM | TGI (UO-31 renal): 74.3 µM

COc1cc2c(cc1C)NC(=O)/C2=C\c1ccc(Oc2ccccc2)cc1
GI50 (786-0 renal): 12 µM | TGI (786-0 renal): 24.8 µM | GI50 (A498 renal): 13.9 µM | TGI (A498 renal): 26.8 µM | GI50 (A549 NSCLC): 14.7 µM | TGI (A549 NSCLC): 33.4 µM | GI50 (ACHN renal): 15.6 µM | TGI (ACHN renal): 29 µM | GI50 (BT-549 breast): 14.2 µM | TGI (BT-549 breast): 28.3 µM | GI50 (CAKI-1 renal): 17 µM | TGI (CAKI-1 renal): 33 µM | GI50 (CCRF-CEM leukemia): 8.36 µM | TGI (CCRF-CEM leukemia): 27.5 µM | GI50 (COLO 205 colon): 20.7 µM | TGI (COLO 205 colon): 36.9 µM | GI50 (DU-145 prostate): 13.2 µM | TGI (DU-145 prostate): 26 µM | GI50 (EKVX NSCLC): 12.9 µM | TGI (EKVX NSCLC): 27 µM | GI50 (HCC-2998 colon): 16.3 µM | TGI (HCC-2998 colon): 29.9 µM | GI50 (HCT-116 colon): 5.85 µM | TGI (HCT-116 colon): 17.7 µM | GI50 (HCT-15 colon): 12.1 µM | TGI (HCT-15 colon): 24.5 µM | GI50 (HL-60(TB) leukemia): 0.0511 µM | TGI (HL-60(TB) leukemia): 11.8 µM | GI50 (HOP-62 NSCLC): 16.9 µM | TGI (HOP-62 NSCLC): 31 µM | GI50 (HOP-92 NSCLC): 2.03 µM | TGI (HOP-92 NSCLC): 9.19 µM | GI50 (HS 578T breast): 20.7 µM | TGI (HS 578T breast): 46.9 µM | GI50 (HT29 colon): 12.2 µM | TGI (HT29 colon): 25.6 µM | GI50 (IGROV1 ovarian): 15.7 µM | TGI (IGROV1 ovarian): 36.9 µM | GI50 (KM12 colon): 13.6 µM | TGI (KM12 colon): 30.4 µM | GI50 (LOX IMVI melanoma): 14 µM | TGI (LOX IMVI melanoma): 27 µM | GI50 (M14 melanoma): 15.1 µM | TGI (M14 melanoma): 29.2 µM | GI50 (MALME-3M melanoma): 20.1 µM | TGI (MALME-3M melanoma): 41.1 µM | GI50 (MDA-MB-231 breast): 18.2 µM | TGI (MDA-MB-231 breast): 37.5 µM | GI50 (MDA-MB-435): 17.8 µM | TGI (MDA-MB-435): 38.1 µM | GI50 (NCI-H226 lung): 16.7 µM | TGI (NCI-H226 lung): 32.6 µM | GI50 (NCI-H23 lung): 15.6 µM | TGI (NCI-H23 lung): 32.2 µM | GI50 (NCI-H522 lung): 12.4 µM | TGI (NCI-H522 lung): 42 µM | GI50 (NCI/ADR-RES ovarian): 17.4 µM | TGI (NCI/ADR-RES ovarian): 36.5 µM | GI50 (OVCAR-3 ovarian): 17.2 µM | TGI (OVCAR-3 ovarian): 34.3 µM | GI50 (OVCAR-4 ovarian): 16.4 µM | TGI (OVCAR-4 ovarian): 29.9 µM | GI50 (OVCAR-5 ovarian): 18.7 µM | TGI (OVCAR-5 ovarian): 36.5 µM | GI50 (OVCAR-8 ovarian): 22.8 µM | TGI (OVCAR-8 ovarian): 64.6 µM | GI50 (PC-3 prostate): 12.4 µM | TGI (PC-3 prostate): 29.8 µM | GI50 (RPMI-8226 leukemia): 12.1 µM | TGI (RPMI-8226 leukemia): 31.6 µM | GI50 (RXF 393 renal): 19.4 µM | TGI (RXF 393 renal): 40.6 µM | GI50 (SF-295 CNS): 17 µM | TGI (SF-295 CNS): 36.8 µM | GI50 (SF-539 CNS): 17.9 µM | TGI (SF-539 CNS): 32.7 µM | GI50 (SK-MEL-2 melanoma): 17 µM | TGI (SK-MEL-2 melanoma): 40.9 µM | GI50 (SK-MEL-28 melanoma): 15.7 µM | TGI (SK-MEL-28 melanoma): 29.5 µM | GI50 (SK-MEL-5 melanoma): 14.5 µM | TGI (SK-MEL-5 melanoma): 27.9 µM | GI50 (SK-OV-3 ovarian): 17 µM | TGI (SK-OV-3 ovarian): 31.4 µM | GI50 (SN12C renal): 14.4 µM | TGI (SN12C renal): 27.5 µM | GI50 (SNB-19 CNS): 17.8 µM | TGI (SNB-19 CNS): 32.9 µM | GI50 (SNB-75 CNS): 21 µM | TGI (SNB-75 CNS): 37.4 µM | GI50 (SR leukemia): 0.0697 µM | TGI (SR leukemia): 2.1 µM | GI50 (SW-620 colon): 16.1 µM | TGI (SW-620 colon): 32.5 µM | GI50 (T-47D breast): 15.1 µM | TGI (T-47D breast): 48.4 µM | GI50 (TK-10 renal): 16.8 µM | TGI (TK-10 renal): 32.9 µM | GI50 (U251 CNS): 12.8 µM | TGI (U251 CNS): 25.4 µM | GI50 (UACC-257 melanoma): 17.7 µM | TGI (UACC-257 melanoma): 34 µM | GI50 (UACC-62 melanoma): 11.9 µM | TGI (UACC-62 melanoma): 26 µM | GI50 (UO-31 renal): 14.8 µM | TGI (UO-31 renal): 30.9 µM
